Measured values as given in BindingDB's records for patent US12398120 (Bayer Aktiengesellschaft, 2025).

Experiments:
[1] = target: T1, A disintegrin and metalloproteinase with thrombospondin motifs 4 (Homo sapiens, UniProt O75173)
T1 sequence (O75173 whole entry): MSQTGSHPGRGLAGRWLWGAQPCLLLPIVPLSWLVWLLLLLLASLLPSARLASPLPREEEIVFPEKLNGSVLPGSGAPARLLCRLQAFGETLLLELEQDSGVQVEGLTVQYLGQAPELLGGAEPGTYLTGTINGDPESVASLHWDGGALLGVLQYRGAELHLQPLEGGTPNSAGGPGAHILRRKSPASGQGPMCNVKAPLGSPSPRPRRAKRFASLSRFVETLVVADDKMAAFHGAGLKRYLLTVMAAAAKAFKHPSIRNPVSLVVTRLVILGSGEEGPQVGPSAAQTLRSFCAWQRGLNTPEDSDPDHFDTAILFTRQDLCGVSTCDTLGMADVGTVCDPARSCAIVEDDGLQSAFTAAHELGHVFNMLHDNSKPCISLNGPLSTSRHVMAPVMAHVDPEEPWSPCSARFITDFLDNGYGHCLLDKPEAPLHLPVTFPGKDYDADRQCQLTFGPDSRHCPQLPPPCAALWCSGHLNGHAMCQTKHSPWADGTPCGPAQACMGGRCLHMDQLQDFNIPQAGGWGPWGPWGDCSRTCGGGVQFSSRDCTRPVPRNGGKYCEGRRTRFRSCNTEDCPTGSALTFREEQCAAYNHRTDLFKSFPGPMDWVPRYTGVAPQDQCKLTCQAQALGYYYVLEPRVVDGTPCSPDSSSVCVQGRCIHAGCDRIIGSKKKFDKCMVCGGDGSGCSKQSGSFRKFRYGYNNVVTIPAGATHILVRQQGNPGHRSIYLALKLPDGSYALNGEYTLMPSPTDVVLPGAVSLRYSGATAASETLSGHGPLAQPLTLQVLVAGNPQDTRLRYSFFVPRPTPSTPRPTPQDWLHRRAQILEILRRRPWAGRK

[2] = target: A disintegrin and metalloproteinase with thrombospondin motifs 7 (Homo sapiens, UniProt Q9UKP4); assay: Assay for ADAMTS-7 Enzymatic Activity and Testing of Inhibitory Compounds
A disintegrin and metalloproteinase with thrombospondin motifs 7, sequence (Q9UKP4 whole entry): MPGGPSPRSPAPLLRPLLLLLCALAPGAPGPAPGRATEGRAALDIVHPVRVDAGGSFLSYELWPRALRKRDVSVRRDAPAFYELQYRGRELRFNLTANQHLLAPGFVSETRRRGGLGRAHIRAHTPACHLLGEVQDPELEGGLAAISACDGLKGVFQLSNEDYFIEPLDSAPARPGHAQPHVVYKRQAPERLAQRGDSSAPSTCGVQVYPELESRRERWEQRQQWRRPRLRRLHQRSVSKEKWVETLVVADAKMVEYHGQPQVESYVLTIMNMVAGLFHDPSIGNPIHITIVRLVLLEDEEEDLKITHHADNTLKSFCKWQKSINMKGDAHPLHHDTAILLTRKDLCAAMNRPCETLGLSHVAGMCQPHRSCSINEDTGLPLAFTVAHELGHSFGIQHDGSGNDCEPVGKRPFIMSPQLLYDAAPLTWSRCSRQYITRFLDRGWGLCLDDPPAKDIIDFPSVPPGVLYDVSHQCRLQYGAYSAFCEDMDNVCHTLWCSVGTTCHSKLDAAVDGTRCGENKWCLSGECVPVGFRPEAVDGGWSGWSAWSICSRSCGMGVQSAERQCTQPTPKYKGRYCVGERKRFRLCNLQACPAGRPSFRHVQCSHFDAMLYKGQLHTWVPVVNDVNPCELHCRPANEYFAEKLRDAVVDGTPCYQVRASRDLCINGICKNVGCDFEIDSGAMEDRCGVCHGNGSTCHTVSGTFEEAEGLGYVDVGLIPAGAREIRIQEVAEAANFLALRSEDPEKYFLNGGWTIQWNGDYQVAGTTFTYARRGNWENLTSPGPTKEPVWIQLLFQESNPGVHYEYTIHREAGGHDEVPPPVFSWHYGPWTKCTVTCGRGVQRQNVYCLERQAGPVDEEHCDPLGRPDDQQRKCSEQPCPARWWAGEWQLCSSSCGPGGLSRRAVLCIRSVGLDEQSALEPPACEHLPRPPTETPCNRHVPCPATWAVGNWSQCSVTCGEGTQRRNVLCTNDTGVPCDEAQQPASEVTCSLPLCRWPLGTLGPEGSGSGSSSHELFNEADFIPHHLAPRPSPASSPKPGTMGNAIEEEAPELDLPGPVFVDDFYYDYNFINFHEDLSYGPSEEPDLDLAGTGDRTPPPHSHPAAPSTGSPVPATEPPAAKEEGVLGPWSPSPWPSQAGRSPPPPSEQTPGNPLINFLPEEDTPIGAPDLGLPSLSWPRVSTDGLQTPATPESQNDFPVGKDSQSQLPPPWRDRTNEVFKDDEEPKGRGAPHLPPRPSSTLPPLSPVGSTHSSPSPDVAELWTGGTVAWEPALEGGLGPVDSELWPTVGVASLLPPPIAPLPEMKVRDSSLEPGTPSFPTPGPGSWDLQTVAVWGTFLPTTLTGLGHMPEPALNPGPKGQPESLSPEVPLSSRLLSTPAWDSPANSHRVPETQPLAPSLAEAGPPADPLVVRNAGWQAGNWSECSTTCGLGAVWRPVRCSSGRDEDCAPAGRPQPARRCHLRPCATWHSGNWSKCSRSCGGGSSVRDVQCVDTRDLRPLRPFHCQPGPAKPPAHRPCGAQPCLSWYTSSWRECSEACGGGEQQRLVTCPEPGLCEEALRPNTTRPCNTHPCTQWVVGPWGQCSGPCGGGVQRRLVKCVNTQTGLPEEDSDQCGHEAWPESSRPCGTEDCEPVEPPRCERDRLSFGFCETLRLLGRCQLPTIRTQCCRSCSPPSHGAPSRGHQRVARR
Experimental: An additional carboxyl glutamic acid was added after the QXL520 quencher to increase substrate solubility. […] IC50 values were calculated from percentage of inhibition of ADAMTS-7 activity as a function of test compound concentration.

| IC50 [1] [nM] | IC50 [2] [nM] | Compound |
| --- | --- | --- |
| 1700 | 4.2 | Cc1ccc(-c2cc(F)ccc2C(=O)NCC2(c3nccn3C)NC(=O)NC2=O)cc1 (single isomer, unassigned) [US12398120, Example 147] |
| 37500 | 8.97 | CC(C)C1(CNC(=O)c2ccc(F)c(F)c2-c2ccc(C(F)(F)F)cc2)NC(=O)NC1=O (single isomer, unassigned) [US12398120, Example 214] |
| 8100 | 45 | Cc1ccc(-c2cc(F)ccc2C(=O)NC[C@@]2(C3CC3)NC(=O)NC2=O)cc1 [US12398120, Example 100] |
